For 13 substances, TLR7 signal (NF-kB luciferase) (% of resiquimod alone) and TLR8 potentiation (NF-kB luciferase) (fold of resiquimod alone) results are on record in the OligoGym collection.

HELM strings list units from the 5' end as sugar, base in round brackets, then linkage (d deoxyribose, r ribose, m 2'-O-methyl, p phosphodiester). [sp] = phosphorothioate linkage

Data set [1] addresses CDKN2B-AS1. Nature of the data set: HEK293-TLR7, 100 nM ASO, then resiquimod.
The target of data set [2] is CDKN2B-AS1. Nature of the data set: HEK293-TLR8, 100 nM ASO, then resiquimod.

In data set [1], “RNA1{m(C)[sp].m(U)[sp].m(U)[sp].m(G)[sp].m(U)[sp].d(G)[sp].d(A)[sp].d(A)[sp].d(A)[sp].d(A)[sp].d(G)[sp].d(A)[sp].d(T)[sp].d(T)[sp].d(A)[sp].m(U)[sp].m(C)[sp].m(U)[sp].m(U)[sp].m(C)}$$$$” yielded a TLR7 signal (NF-kB luciferase) (% of resiquimod alone) of 85.3. In data set [2], the TLR8 potentiation (NF-kB luciferase) (fold of resiquimod alone) is 3.89.

On to “RNA1{m(G)[sp].m(A)[sp].m(A)[sp].m(A)[sp].m(A)[sp].d(G)[sp].d(A)[sp].d(T)[sp].d(T)[sp].d(A)[sp].d(T)[sp].d(C)[sp].d(T)[sp].d(T)[sp].d(C)[sp].m(U)[sp].m(U)[sp].m(U)[sp].m(U)[sp].m(A)}$$$$”, for which, in data set [1], the TLR7 signal (NF-kB luciferase) (% of resiquimod alone) was determined as 34.4. In addition, the TLR8 potentiation (NF-kB luciferase) (fold of resiquimod alone) in data set [2] is 1.31.

“RNA1{m(G)[sp].m(A)[sp].m(G)[sp].m(U)[sp].m(U)[sp].d(C)[sp].d(T)[sp].d(T)[sp].d(C)[sp].d(G)[sp].d(T)[sp].d(A)[sp].d(G)[sp].d(G)[sp].d(C)[sp].m(U)[sp].m(U)[sp].m(C)[sp].m(U)[sp].m(G)}$$$$” had a TLR7 signal (NF-kB luciferase) (% of resiquimod alone) in data set [1] of 25.9. Also, in data set [2], the TLR8 potentiation (NF-kB luciferase) (fold of resiquimod alone) came out at 0.96.

As to “RNA1{m(G)[sp].m(A)[sp].m(U)[sp].m(U)[sp].m(A)[sp].d(A)[sp].d(A)[sp].d(A)[sp].d(C)[sp].d(A)[sp].d(G)[sp].d(A)[sp].d(T)[sp].d(T)[sp].d(A)[sp].m(A)[sp].m(U)[sp].m(A)[sp].m(C)[sp].m(A)}$$$$”, the TLR7 signal (NF-kB luciferase) (% of resiquimod alone) in data set [1] turned out to be 21.9. Further, the TLR8 potentiation (NF-kB luciferase) (fold of resiquimod alone) in data set [2] turned out to be 0.73.

For “RNA1{m(G)[sp].m(C)[sp].m(A)[sp].m(G)[sp].m(U)[sp].d(C)[sp].d(T)[sp].d(C)[sp].d(C)[sp].d(A)[sp].d(T)[sp].d(G)[sp].d(T)[sp].d(C)[sp].d(C)[sp].m(C)[sp].m(A)[sp].m(G)[sp].m(G)[sp].m(C)}$$$$”, in data set [1], the TLR7 signal (NF-kB luciferase) (% of resiquimod alone) amounted to 20.3. For the same substance, the TLR8 potentiation (NF-kB luciferase) (fold of resiquimod alone) in data set [2] stood at 1.79.

“RNA1{m(G)[sp].m(G)[sp].m(A)[sp].m(C)[sp].m(A)[sp].d(C)[sp].d(T)[sp].d(T)[sp].d(A)[sp].d(G)[sp].d(C)[sp].d(T)[sp].d(G)[sp].d(T)[sp].d(T)[sp].m(C)[sp].m(C)[sp].m(U)[sp].m(C)[sp].m(G)}$$$$” came in with a TLR7 signal (NF-kB luciferase) (% of resiquimod alone) in data set [1] of 45.8. The TLR8 potentiation (NF-kB luciferase) (fold of resiquimod alone) in data set [2] is 1.13.

“RNA1{m(G)[sp].m(G)[sp].m(A)[sp].m(G)[sp].m(A)[sp].d(T)[sp].d(C)[sp].d(A)[sp].d(G)[sp].d(A)[sp].d(T)[sp].d(G)[sp].d(A)[sp].d(G)[sp].d(A)[sp].m(G)[sp].m(G)[sp].m(A)[sp].m(G)[sp].m(C)}$$$$” came in with a TLR7 signal (NF-kB luciferase) (% of resiquimod alone) in data set [1] of 26.3. In data set [2], the TLR8 potentiation (NF-kB luciferase) (fold of resiquimod alone) was determined as 1.05.

“RNA1{m(G)[sp].m(G)[sp].m(A)[sp].m(U)[sp].m(U)[sp].d(A)[sp].d(A)[sp].d(A)[sp].d(A)[sp].d(C)[sp].d(A)[sp].d(G)[sp].d(A)[sp].d(T)[sp].d(T)[sp].m(A)[sp].m(A)[sp].m(U)[sp].m(A)[sp].m(C)}$$$$” yielded a TLR7 signal (NF-kB luciferase) (% of resiquimod alone) in data set [1] of 27.2. Also, the TLR8 potentiation (NF-kB luciferase) (fold of resiquimod alone) in data set [2] worked out at 1.16.

In data set [1], “RNA1{m(G)[sp].m(G)[sp].m(U)[sp].m(G)[sp].m(G)[sp].d(C)[sp].d(C)[sp].d(A)[sp].d(C)[sp].d(A)[sp].d(G)[sp].d(G)[sp].d(C)[sp].d(A)[sp].d(A)[sp].m(C)[sp].m(G)[sp].m(U)[sp].m(C)[sp].m(A)}$$$$” returned a TLR7 signal (NF-kB luciferase) (% of resiquimod alone) of 39.1. Also, the TLR8 potentiation (NF-kB luciferase) (fold of resiquimod alone) in data set [2] was found to be 0.8.

On to “RNA1{m(G)[sp].m(U)[sp].m(C)[sp].m(A)[sp].m(A)[sp].d(A)[sp].d(C)[sp].d(C)[sp].d(T)[sp].d(A)[sp].d(G)[sp].d(A)[sp].d(A)[sp].d(A)[sp].d(G)[sp].m(A)[sp].m(A)[sp].m(G)[sp].m(C)[sp].m(A)}$$$$”, for which the TLR7 signal (NF-kB luciferase) (% of resiquimod alone) in data set [1] worked out at 23.6. Also, the TLR8 potentiation (NF-kB luciferase) (fold of resiquimod alone) in data set [2] is 1.6.

Turning to “RNA1{m(G)[sp].m(U)[sp].m(C)[sp].m(C)[sp].m(C)[sp].d(A)[sp].d(G)[sp].d(G)[sp].d(C)[sp].d(C)[sp].d(T)[sp].d(C)[sp].d(C)[sp].d(A)[sp].d(G)[sp].m(U)[sp].m(G)[sp].m(U)[sp].m(C)[sp].m(U)}$$$$”, the TLR7 signal (NF-kB luciferase) (% of resiquimod alone) in data set [1] was found to be 19. The TLR8 potentiation (NF-kB luciferase) (fold of resiquimod alone) in data set [2] turned out to be 1.05.

On to “RNA1{m(G)[sp].m(U)[sp].m(C)[sp].m(G)[sp].m(U)[sp].d(G)[sp].d(G)[sp].d(C)[sp].d(A)[sp].d(A)[sp].d(A)[sp].d(T)[sp].d(A)[sp].d(G)[sp].d(T)[sp].m(C)[sp].m(C)[sp].m(U)[sp].m(A)[sp].m(G)}$$$$”, for which, in data set [1], the TLR7 signal (NF-kB luciferase) (% of resiquimod alone) amounted to 27.5. In addition, the TLR8 potentiation (NF-kB luciferase) (fold of resiquimod alone) in data set [2] was 2.12.

In turn, “RNA1{m(G)[sp].m(U)[sp].m(C)[sp].m(U)[sp].m(C)[sp].d(C)[sp].d(A)[sp].d(T)[sp].d(G)[sp].d(T)[sp].d(C)[sp].d(C)[sp].d(C)[sp].d(A)[sp].d(G)[sp].m(G)[sp].m(C)[sp].m(C)[sp].m(U)[sp].m(C)}$$$$” returned a TLR7 signal (NF-kB luciferase) (% of resiquimod alone) in data set [1] of 23.8. In addition, the TLR8 potentiation (NF-kB luciferase) (fold of resiquimod alone) in data set [2] was found to be 1.01.
